Among the test systems are U-251; OVCAR-4; LOX IMVI; UACC-62; HT-29; SF-539; A498; OVCAR-5; M14; NCI-H460; DU-145; MOLT-4; SK-OV-3; HL-60; HCT-15; K562; SW-620; NCI-H226; RXF 393; Malme-3M.
What all share (experiment): NCI-60 cell line screen, 48 h

Each structure is given as a SMILES string.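 Grown in 96-well plates, cells were treated for 48 hours with each compound at five concentrations. Insufficient inhibition: endpoint recorded as highest concentration tested. Abbreviation: GI50, concentration required for 50% inhibition of growth.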 The source made the active and inactive calls. Rule as the data show it: active = GI50 up to about 1.1 µM and inactive = higher.

Regarding `COC1CC(OC2CCC3(C)C(=CCC4C3C(OC(C)=O)C(OC(=O)CC(C)C)C3(C)C(C(C)=O)CCC43O)C2)OC(C)C1OC1CC(OC)C(OC2CC(OC)C(OC3OC(C)C(OC4OC(CO)C(O)C(O)C4O)C(OC)C3O)C(C)O2)C(C)O1` (configuration not stated), the GI50 in the test on U-251, with OVCAR-4, with LOX IMVI, in the test with UACC-62, in the test on HT-29 and in the test with SF-539 was > 75 µM (inactive) in each case. In addition, the GI50 in the test with A498 is > 75 µM (inactive); in the test on OVCAR-5 it was > 75 µM (inactive); in the test with M14, > 75 µM (inactive); with NCI-H460 it was > 7.5 µM (inactive); with DU-145 it was > 75 µM (inactive); in the test on MOLT-4, > 75 µM (inactive). Further, the GI50 in the test on SK-OV-3 is > 75 µM (inactive); with HL-60 it was > 75 µM (inactive); in the test on HCT-15, greater than 75 µM; with K562 it was > 75 µM (inactive); with SW-620, > 75 µM (inactive); in the test with NCI-H226, > 75 µM (inactive).

On to `CCc1[nH]c(=O)c2oc3cc4ccccc4cc3c2c1C(=O)O`, for which the GI50 in the test on RXF 393, in the test on OVCAR-4, in the test with LOX IMVI, with Malme-3M, with HT-29 and in the test on SF-539 was > 10 µM (inactive) each time. For the same molecule, the GI50 was > 10 µM (inactive) in the test on OVCAR-5; > 10 µM (inactive) in the test on M14; > 10 µM (inactive) in the test with NCI-H460; 3.91 µM (inactive) in the test on DU-145; > 10 µM (inactive) in the test on HL-60; greater than 10 µM in the test on HCT-15. Also, the GI50 in the test on SW-620 and in the test on NCI-H226 was > 10 µM (inactive) each time.

For the molecule `COc1ccc2c(c1)CCCN1Cc3cc(OC)c(OC)cc3CC21` (configuration not stated), the GI50 in the test on RXF 393 is 25.6 µM (inactive); in the test with U-251, > 100 µM (inactive); in the test with OVCAR-4, 43.7 µM (inactive); in the test on LOX IMVI it was 44.8 µM (inactive); in the test on UACC-62, 86.3 µM (inactive); with Malme-3M, > 100 µM (inactive). In addition, the GI50 in the test with HT-29 was 28.1 µM (inactive); with SF-539, 81.8 µM (inactive); in the test on OVCAR-5, > 100 µM (inactive); in the test with M14, 18.9 µM (inactive); in the test with NCI-H460, 50.2 µM (inactive); in the test on DU-145, > 100 µM (inactive). For the same molecule, the GI50 is > 100 µM (inactive) in the test on MOLT-4; 66.2 µM (inactive) in the test with SK-OV-3; greater than 100 µM with HCT-15; 80.7 µM (inactive) with K562; > 100 µM (inactive) in the test on SW-620; > 100 µM (inactive) with NCI-H226.

For the molecule `N=C1/C(=C/c2ccc(F)cc2)C(=O)N=C2SC=NN12`, the GI50 in the test on RXF 393 was 31.5 µM (inactive); in the test on U-251 it was > 100 µM (inactive); in the test with OVCAR-4, > 100 µM (inactive); with LOX IMVI, 12.9 µM (inactive); in the test on UACC-62, 87.9 µM (inactive); in the test on Malme-3M it was > 100 µM (inactive). The GI50 in the test on HT-29, in the test with SF-539, in the test with OVCAR-5, with M14, with NCI-H460 and in the test with DU-145 was > 100 µM (inactive) throughout. Further, the GI50 in the test on MOLT-4 was > 100 µM (inactive); with SK-OV-3 it was > 100 µM (inactive); with HL-60, 80.5 µM (inactive); with HCT-15, greater than 100 µM; in the test on K562, > 100 µM (inactive); with SW-620 it was > 100 µM (inactive). Further, the GI50 with NCI-H226 was > 100 µM (inactive).

Regarding `CC(=O)/C(=C\c1ccc(Cl)c(Cl)c1)C(=O)C(C)CN(C)C` (configuration not stated), the GI50 was 3.26 µM (inactive) in the test on U-251; 2.21 µM (inactive) in the test on LOX IMVI; 8.15 µM (inactive) in the test on Malme-3M; 5.12 µM (inactive) in the test with HT-29; 3.52 µM (inactive) in the test with SF-539; 2.96 µM (inactive) in the test on A498. Besides, the GI50 with OVCAR-5 was 10.8 µM (inactive); in the test with M14, 9.75 µM (inactive); with NCI-H460, 12.5 µM (inactive); in the test on DU-145 it was 4.43 µM (inactive); with MOLT-4, 2.19 µM (inactive); with SK-OV-3, 16.5 µM (inactive). In addition, the GI50 in the test with HL-60 is 2 µM (inactive); with HCT-15 it was 2.33 µM; with SW-620 it was 2.69 µM (inactive); in the test on NCI-H226, 2.39 µM (inactive).

`Nc1ccc(C2NC(=O)Cc3c2ccc2ccccc32)cc1` (configuration not stated): the GI50 was > 100 µM (inactive) in the test with U-251; 40.3 µM (inactive) in the test on OVCAR-4; > 100 µM (inactive) in the test on LOX IMVI; 66.1 µM (inactive) with UACC-62; 47 µM (inactive) in the test on Malme-3M; > 100 µM (inactive) in the test with HT-29. The GI50 was 90.6 µM (inactive) in the test with SF-539; > 100 µM (inactive) in the test with A498; > 100 µM (inactive) in the test on OVCAR-5; 89.9 µM (inactive) in the test on M14; 71.1 µM (inactive) in the test on NCI-H460; > 100 µM (inactive) with DU-145. The GI50 in the test with MOLT-4 was > 100 µM (inactive); with SK-OV-3 it was > 100 µM (inactive); with HL-60, 35.2 µM (inactive); with HCT-15, 84.1 µM; in the test on K562, > 100 µM (inactive); in the test with SW-620, > 100 µM (inactive). Also, in the test on NCI-H226, the GI50 is 34.4 µM (inactive).

For the molecule `COc1ccc2c(c1)C(=O)CC(C(N)=O)C2` (configuration not stated), the GI50 in the test on RXF 393, with U-251, with OVCAR-4, in the test on LOX IMVI, with UACC-62 and in the test with Malme-3M was > 100 µM (inactive) each time. Besides, the GI50 in the test on HT-29, with OVCAR-5, in the test with M14, in the test on NCI-H460, in the test on DU-145 and in the test on MOLT-4 was > 100 µM (inactive) throughout. In addition, the GI50 with SK-OV-3 was > 100 µM (inactive); in the test on HL-60 it was > 100 µM (inactive); in the test with HCT-15 it was greater than 100 µM; in the test on K562, > 100 µM (inactive); in the test with SW-620, > 100 µM (inactive); in the test on NCI-H226, > 100 µM (inactive).

Consider `COc1ccc(N2C(=O)C3c4[nH]c5c(C)cccc5c4C4CCC(C(C)C)CC4C3C2=O)cc1` (configuration not stated), for which the GI50 in the test on U-251 was 10 µM (inactive); in the test on OVCAR-4, 14 µM (inactive); in the test on LOX IMVI, 3.59 µM (inactive); in the test on UACC-62 it was > 10 µM (inactive); in the test with Malme-3M it was 13.4 µM (inactive); in the test with HT-29, 3.37 µM (inactive). The GI50 with A498 is 14 µM (inactive); with OVCAR-5, 14 µM (inactive); with M14, 9.53 µM (inactive); in the test with NCI-H460 it was 7.94 µM (inactive); in the test on DU-145, 12.2 µM (inactive); with MOLT-4, 2.12 µM (inactive). For the same molecule, the GI50 in the test on SK-OV-3 was 16.4 µM (inactive); in the test with HCT-15, 10 µM; in the test on K562 it was 2.01 µM (inactive); with SW-620, 11 µM (inactive); in the test with NCI-H226, 13.9 µM (inactive).

With `CC(C)C(=O)OCN(C)c1nc(N(C)COC(=O)C(C)C)nc(N(C)COC(=O)C(C)C)n1`, the GI50 in the test on OVCAR-4 is 23.8 µM (inactive); with LOX IMVI, 14.6 µM (inactive); with HT-29, 25.2 µM (inactive); in the test on SF-539 it was 23.2 µM (inactive); in the test on A498, 36 µM (inactive); with OVCAR-5, 27.7 µM (inactive). Also, the GI50 with M14 is 17 µM (inactive); in the test with NCI-H460 it was 21.8 µM (inactive); with DU-145, 37.5 µM (inactive); with MOLT-4, 22.3 µM (inactive); in the test on HL-60, 22.3 µM (inactive); in the test with HCT-15, 21.6 µM. For the same molecule, the GI50 with K562 is 30.5 µM (inactive); with SW-620, 21.6 µM (inactive); in the test with NCI-H226 it was 41.4 µM (inactive).

With `C/C(Cl)=N\OC(=O)Nc1ccccc1C(F)(F)F`, the GI50 with U-251 was > 100 µM (inactive); with OVCAR-4, 13.8 µM (inactive); with LOX IMVI, 14.9 µM (inactive); in the test on Malme-3M, 20.9 µM (inactive); with HT-29 it was 18.9 µM (inactive); with SF-539, > 100 µM (inactive). The GI50 was > 100 µM (inactive) in the test with A498; 42.6 µM (inactive) in the test with OVCAR-5; > 100 µM (inactive) in the test on NCI-H460; > 100 µM (inactive) in the test with DU-145; 18.5 µM (inactive) in the test on MOLT-4; > 100 µM (inactive) with SK-OV-3. For the same molecule, the GI50 in the test on HL-60 is 3.5 µM (inactive); in the test with HCT-15 it was greater than 100 µM; in the test with K562, 19 µM (inactive); in the test on SW-620 it was 17.9 µM (inactive).

Take `COC(=O)C1CCCN1C(=O)OC(C)(C)C` (configuration not stated): the GI50 in the test on RXF 393, in the test on U-251, in the test on OVCAR-4, with LOX IMVI, in the test on UACC-62 and in the test on HT-29 was > 100 µM (inactive) in each case. Further, the GI50 in the test on OVCAR-5 is > 100 µM (inactive); in the test with NCI-H460, > 100 µM (inactive); with DU-145, > 100 µM (inactive); in the test on MOLT-4 it was 23.3 µM (inactive); in the test with SK-OV-3 it was > 100 µM (inactive); in the test with HCT-15, greater than 100 µM. Further, the GI50 in the test on K562, in the test on SW-620 and with NCI-H226 was > 100 µM (inactive) each time.

Regarding `C=COC(=O)N1C2CCCC(Cl)(C(C)=O)C1CC2` (configuration not stated), the GI50 with U-251 is > 100 µM (inactive); with OVCAR-4, > 100 µM (inactive); in the test with LOX IMVI, > 100 µM (inactive); in the test with UACC-62, > 100 µM (inactive); in the test on Malme-3M it was 87.5 µM (inactive); with HT-29 it was > 100 µM (inactive). The GI50 in the test on A498, in the test on OVCAR-5, in the test on M14, in the test on NCI-H460, in the test on DU-145 and in the test with MOLT-4 was > 100 µM (inactive) in each case. The GI50 in the test with SK-OV-3 is > 100 µM (inactive); with HCT-15, greater than 100 µM; in the test with K562, > 100 µM (inactive); in the test on SW-620, > 100 µM (inactive); with NCI-H226 it was > 100 µM (inactive).

For the origin of these results see ChEMBL document CHEMBL1201862, “PubChem BioAssay data set” (2004).
